Columns and labels:
[1] = tested on: HCV replicon cells (Huh7); assay: HCV replicon assay (HCV EC50 determination, luciferase readout); format: cell-based; settings: for inhibition at 250 µM: Concentration tested 250 micromolar
Method: Replicon cells were seeded in 96-well plates at a density of 8×10^3 cells per well in 100 μL of culture medium, excluding Geneticin. Compound was serially diluted in 100% DMSO and then added to the cells at a 1:200 dilution, achieving a final concentration of 0.5% DMSO and a total volume of 200 μL. Plates were incubated at 37° C. for 3 days, after which culture medium was removed and cells were lysed in lysis buffer provided by Promega's luciferase assay system. Following the manufacturer's instruction, 100 μL of luciferase substrate was added to the lysed cells and luciferase activity was measured in a TopCount luminometer.

HCV NS5b polymerase = HCV NS5b polymerase (Hepatitis C virus genotype 1b, UniProt Q9WMX2); assay: NS5b polymerase assay (HCV IC50 determination); format: biochemical; settings: Concentration tested 200 micromolar
Method: Assay Protocol: NS5b polymerase assay (40 μL) was assembled by adding 28 μL polymerase mixture (final concentration: 50 mM Tris-HCl at pH 7.5, 10 mM KCL, 5 mM MgCl2, 1 mM DTT, 10 mM EDTA, 4 ng/μL of RNA template, and 75 nM HCV ? 21 NS5b polymerase) to assay plates followed by 4 μL of compound dilution. The polymerase and compound were pre-incubated at 35° C. for 10 minute before the addition of 8 μL of nucleotide substrate mixture (33P- ? -labeled competing nucleotide at KM and 0.5 mM of the remaining three nucleotides). The assay plates were covered and incubated at 35° C. for 90 min. Reactions were then filtered through 96-well DEAE-81 filter plates via vacuum. The filter plates were then washed under vacuum with multiple volumes of 0.125 M NaHPO4, water, and ethanol to remove unincorporated label. Plates were then counted on TopCount to assess the level of product synthesis over background controls. The IC50 value was determined using Prism fitting program.

Compound	inhibition at 250 µM ([1]; Hepatitis C virus, Huh-7) [%]	also measured
Nc1nc2c(ncn2C2OC(OCP(=O)(O)O)CC2O)c(=O)[nH]1 (stereo not drawn) [Compound 5.2, [5-(2-Amino-6-oxo-1,6-dihydro-purin-9-yl)-4-hydroxy-tetrahydro-furan-2-yloxymethyl]-phosphonic acid]	27.2	–
NC(=O)c1ncn(C2OC(OCP(=O)(O)O)CC2O)n1 (stereo not drawn) [Compound 8.3, [5-(3-Carbamoyl-[1,2,4]triazol-1-yl)-4-hydroxy-tetrahydro-furan-2-yloxymethyl]-phosphonic acid]	18.5	–
NC(=O)c1ncn([C@@H]2O[C@H](OCP(=O)(O)OP(=O)(O)OP(=O)(O)O)C[C@H]2O)n1 [Compound 9.4, Diphosphate of [5-(3-Carbamoyl-[1,2,4]triazol-1-yl)-4-hydroxy-tetrahydro-furan-2-yloxymethyl]-phosphonic acid]	–	inhibition at 200 µM (HCV NS5b polymerase): 65.5%
CCCCOC(=O)[C@H](C)NP(=O)(CO[C@@H]1C[C@@H](O)[C@H](n2cnc(C(N)=O)n2)O1)N[C@@H](C)C(=O)OCCCC [Compound 9.5, Bis (Alanine-n-butyl ester) phosphonamidate pro drug of [5-(3-carbamoyl-[1,2,4]triazol-1-yl)-4-hydroxy-tetrahydro-furan-2-yloxymethyl]-phosphonic acid]	–	inhibition at 50 µM ([1]; Hepatitis C virus, Huh-7, Concentration tested 50 micromolar): 1.1%
C[C@]1(OCP(=O)(O)O)O[C@@H](n2ccc(=O)[nH]c2=O)[C@H](O)[C@@H]1O [Compound 32.4, ((2R,3S,4R,5R)-5-(2,4-dioxo-3,4-dihydropyrimidin-1(2H)-yl)-3,4-dihydroxy-2-methyl-tetrahydrofuran-2-yloxy)methylphosphonic acid]	14.8	–
CCCCOC(=O)[C@H](C)NP(=O)(CO[C@H]1O[C@@H](n2ccc(N)cc2=O)[C@H](O)[C@@H]1O)N[C@@H](C)C(=O)OCCCC [Compound 32.5]	–	% Inhibition of replicon ([1]; Concentration tested 500 micromolar): 37.5%
